# Measurements published in US9006185B2, “Use of cell-permeable peptide inhibitors of the JNK signal transduction pathway for the treatment of various diseases” (Xigen Inflammation Ltd., priority 2008, dated 2015).
# “Also recorded” adds a separate entry of the source.
# Assays:
# Aβ1-40 and Aβ1-42 = Aβ1-40 and Aβ1-42 ELISA in brain homogenate fractions and CSF of hAPP Tg mice; type: in vivo
# Experimental: (§1) iv) Treatment • Forty female hAPP transgenic mice were treated with either 0.1 mg/kg b.w./every two weeks or 10 mg/kg b.w./every three weeks of the test substance XG-102 (SEQ ID NO: 11) in two different dosages (n=12/group) or treated with the vehicle (n=12) s.c. once every three weeks over four months.
# vi) Tissue Sampling • At the end of the treatment period, and following all behavioral testing, all remaining mice (n=28) were sacrificed. Therefore, all mice were sedated by standard inhalation anesthesia (Isofluran, Baxter) as described in SOP MET030. Cerebrospinal fluid (CSF) was obtained by blunt dissection and exposure of the foramen magnum. Upon exposure, a Pasteur pipette was inserted to the approximate depth of 0.3-1 mm into the foramen magnum. CSF was collected by suctioning and capillary action until flow fully ceases. Two aliquots of each sample were immediately frozen and kept at −80° C. until ready for further analysis with ELISA technique. After CSF sampling, each mouse was placed in dorsal recumbence, thorax was opened and a 26-gauge needle attached to a 1 cc syringe was inserted into the right cardiac ventricular chamber. Light suction was applied to the needle and blood was collected into EDTA and consequently used to obtain plasma. To get plasma, blood samples from each mouse were spun at 1,750 rpm (700 g) for 10 minutes in a centrifuge (GS-6R Beckman) using a rotor with swing buckets (GH—3.8 Beckman). Plasma was frozen and stored at −20° C. until further analysis. After blood sampling transgenic mice were intracardially perfused with 0.9% sodium chloride. Brains were rapidly removed the cerebellum was cut off. The right hemispheres of all mice were immersion fixed in freshly produced 4% Paraformaldehyde/PBS (pH 7.4) for one hour at room temperature. Thereafter brains were transferred to a 15% sucrose PBS solution for 24 hours to ensure cryoprotection. […]
# vii) Determination of Aβ1-40 and Aβ1-42 • In four different brain homogenate fractions of each Tg mouse as well as in CSF samples the Aβ1-40 and Aβ1-42 levels were evaluated with ELISA technique. […]
# hAPP Tg mice = assay: Plaque load by 6E10 immunohistochemistry and ThioflavinS staining in hAPP Tg mice; type: in vivo
# Experimental: as §1
# viii) Evaluation of Brain Morphology • Brain tissues of all Tg animals investigated were handled in exactly the same way to avoid bias due to variation of this procedure. From brain halves of 24 Tg mice (8 of each group) 20 cryo-sections per layer (altogether 5 layers), each 10 μm thick (Leica CM 3050S) were sagittally cut and 5 (one from each layer) were processed and evaluated for quantification of plaque load. The five sagittal layers corresponded with the FIGS. 104 to 105, 107 to 108, 111 to 112, 115 to 116 and 118 to 119 according to the morphology atlas “The Mouse Brain” from Paxinos and Franklin (2nd edition). The first layer was specified by the requirement to include the whole hippocampus with it's regions CA1, CA2, CA3, GDIb and GDmb. Immunoreactivity was quantitatively evaluated in the hippocampus and in the cortex using the monoclonal human Aβ-specific antibody 6E10 (Signet) as well as ThioflavinS staining. Remaining brain hemispheres or tissue not used were saved and stored at JSW CNS until the end of the project. b) Evaluation
# iii) Histology • i1) Measurement of Amyloid Depositions and Plaque Load • For 6E10 immunohistochemistry the following evaluation procedure was used: • aa) Contrasting the image for visualization of slice borders without applying the contrast on the image. • bb) Interactive drawing of the cortical outlines and the following measurement of the cortical area (=region area). • cc) Interactive drawing of the area of interest (AOI), in which stained objects are detected over a certain intensity based threshold level (the same for each image) and above a size of 8 μm^2. • dd) Measurement of the area of each object, the sum of stained area in the AOI as well as the number of objects after a smooth contrasting to enhance signal/noise ratio (the same for each image). • ee) Repetition of aa)-dd) for the hippocampus. • ff) Calculation of the mean plaque size (=“sum area of plaques/number of plaques”), the relative plaque number and area (=“number of plaques/region area” and “sum area of plaques/region area*100”). • gg) Automated data export into an Excel spread sheet, including the parameters “image title, region area, number of plaques, sum of plaque area, relative plaque number, relative plaque area and mean plaque size. A field for remarks was used to record image quality and exclusion criteria, respectively. Exclusion criteria were missing parts of the slice, many wrinkles, dominant flaws or staining inconsistencies (e.g. due to bulges, which can impede the full reaction of the blocking reagent). • hh) Closing the image without saving (to keep raw data raw). c) Results
# Excerpt for db/db mice: i) Animals • A total of twenty (20) male db/db mice (8 weeks old) were obtained from Charles River (Germany). Upon arrival, animals were group housed (n=6-7/group) and offered regular rodent chow (Altromin standard #1324 chow; C. Petersen, Ringsted, Denmark) and water ad libitum unless otherwise stated. • The mice were housed under a 12:12 L/D cycle (lights on at 4:00 and lights off at 16:00) and in temperature and humidity controlled rooms.
# ii) Groups and Randomization • On day 4, mice were randomized according to blood glucose level (fasted; blood glucose measured on Biosen S line analyzer (EKF diagnostic, Germany) to participate in one of the following drug treatment groups (n=6): • 1) Vehicle control, S.C. […] Drug purity: 95.28%, peptide content: 78.0%. All compounds were administered sub-cutaneously (s.c.) in a volume of 3 ml/kg. […] The formulations (concentrations of 0.33 and 3.3 mg/ml, corresponding to the doses of 1 and 10 mg/kg, respectively) were prepared according to the procedure detailed below. […] Aliquots are prepared for each treatment day and stored at approximately −80° C. Dilutions of this stock solution to the required concentrations are performed on each treatment day; • Storage of the stock solution: at approximately −80° C.; • Storage of the diluted preparations: at room temperature for 24 hours maximum. • Prior to solubilisation, the powder was stored at −20° C. The stability of the stock solution is 3 months at approximately −80° C.; the stability of the diluted formulations for animal dosing is 24 hours at room temperature. Unused diluted material could be stored for up to 7 days if kept at 4-8° C. c) Experimental Procedure
# Following 8 days of acclimatization the mice were treated daily at 08.00 AM for 21 days by SC dosing 8 hours prior to lights out at 04.00 PM according to the outline groups.
# i) Blood Glucose • Blood glucose was measured from 7 hour fasted animals 6 hours post dosing by collection of 10 μl blood samples from the tail-vein in hematocrite tubes and subsequent analysis on a Biosen s-line analyzer (EKF-diagnostic; Germany).
# ii) Metabolic Cages • Groups 1+3: Mice were placed in metabolic cages for the recording of 24-hour food and water intake as well as 24-hour urine and feces production. Mice were stratified into two sub-teams of n=6-7 and subsequently the metabolic characterisation were performed on study days 71-72.
# iii) Adipokine Panel • Groups 1+3: On three occasions (study days 57, 66 and 108) blood was collected from the tail vein using EDTA coated hematocrite tubes (100 μl). Following centrifugation of blood the plasma was collected and stored at −20° C. until measurement. Then, the following panel of adipokines/cytokines was determined using Luminex based 7-plex: leptin, resistin, MCP-1, PAI-1, TNF, insulin and interleukin-6 (IL-6).
# iv) Termination • Groups 1+3 (day 111): The following organs were excised and weighed: inguinal subcutaneous fat, epididymal fat, retroperitoneal fat, brain, liver, kidney, spleen and heart. All organs described above were samples in 4% PFA for possible future histo-pathological examination. Also, pancreas (en bloc) was sampled for possible stereological and immunohistochemical analysis, and eyes were sampled for possible later analysis of retinopathy. Group 2 (day 28): No tissues or plasma were collected. c) Results
smiles,measurement,setting,value
CC(C)C[C@@H](NC(=O)[C@@H](Cc1ccccc1)NC(=O)[C@H]1CCCN1C(=O)[C@@H](CCC(N)=O)NC(=O)[C@H](NC(=O)[C@H]1CCCN1C(=O)[C@@H](CCCNC(=N)N)NC(=O)[C@@H](CO)NC(=O)[C@@H](CCC(N)=O)NC(=O)[C@H](N)CC(=O)O)C(C)C)C(=O)N[C@H](CC(N)=O)C(=O)N[C@H](CC(C)C)C(=O)N[C@@H](C(=O)N[C@@H](C(=O)N1CCC[C@@H]1C(=O)N[C@H](CCCNC(=N)N)C(=O)N[C@H](CCCCN)C(=O)N1CCC[C@@H]1C(=O)N[C@H](CCCNC(=N)N)C(=O)N1CCC[C@@H]1C(=O)N1CCC[C@@H]1C(=O)N[C@H](CCCNC(=N)N)C(=O)N[C@H](CCCNC(=N)N)C(=O)N[C@H](CCCNC(=N)N)C(=O)N[C@H](CCC(N)=O)C(=O)N[C@H](CCCNC(=N)N)C(=O)N[C@H](CCCNC(=N)N)C(=O)N[C@H](CCCCN)C(=O)N[C@H](CCCCN)C(=O)N[C@H](CCCNC(=N)N)C(=O)NCC(=O)O)[C@H](C)O)[C@H](C)O [XG-102],brain homogenate Aβ1-40 levels,Aβ1-40 and Aβ1-42; both dosages,did not affect brain homogenate Aβ1-40 levels
same,CSF Aβ1-40 and Aβ1-42 levels,"Aβ1-40 and Aβ1-42; both dosages, p<0.01 10 mg/kg, <0.05 low dosage",a significant decrease of Aβ1-40 and Aβ1-42 in CSF; also recorded: significantly decreased in CSF compared to vehicle group
same,Aβ1-42 level in Triton X-100 fraction,"Aβ1-40 and Aβ1-42; low dose 0.1 mg/kg, p<0.05 vs vehicle",a significant reduction compared to the vehicle group
same,"mean plaque size (ThioflavinS, hippocampus)",hAPP Tg mice; 0.1 mg/kg,"reduced mean plaque size, however this effect did not reach significance level"
same,cortical 6E10 IR plaque load,hAPP Tg mice; 10 mg/kg,increased versus vehicle
same,ThioflavinS plaque area [%] in the hippocampus,"hAPP Tg mice; mouse, in vivo",significantly reduced the area obtained by plaques in the hippocampus
same,cortical plaque load (ThioflavinS),"hAPP Tg mice; mouse, in vivo",cortical plaque load remained unchanged
same,number of hippocampal ThioflavinS positive plaques,"hAPP Tg mice; p<0.05 for 10 mg/kg, p<0.01 for 0.1 mg/kg",reduced the number of plaques negatively dose-dependent in the hippocampus; also recorded: a negatively dose dependent reduction of the number of hippocampal ThioflavinS positive plaques
same,fasting blood glucose,"db/db mice; 1 mg/kg s.c., 28 days of dosing",no effect
same,body weight,"db/db mice; 1 mg/kg, 28 days of dosing",no effect
same,"fasting blood glucose, low plateau",db/db mice; 10 mg/kg s.c.,approximately 5 mmol/L
same,fasting blood glucose vs vehicle control,"db/db mice; 10 mg/kg s.c. daily for 21 days, then wash-out to day 111",clear and significant (p<0.001) decrease in the level of fasting blood glucose
same,"plasma levels of insulin, MCP-1, IL-6, tPAI-1, TNF","db/db mice; 10 mg/kg, day 57, 77 and 108",no significant effects
same,plasma resistin,"db/db mice; 10 mg/kg, day 77 and 108",significantly higher
same,body weight vs vehicle control,"db/db mice; 10 mg/kg, from day 28 to day 111",clear and significant (p<0.001) prevention of body weight increase
same,"24 hour food and water intake, urine and feces production (metabolic cages)","db/db mice; 10 mg/kg, study day 68",no significant effects
same,tissue weight of epididymal and retroperitoneal fat pads,"db/db mice; 10 mg/kg, termination day 111",significant decrease of epididymal (p<0.05) and retroperitoneal (p<0.01) fat mass
same,tissue weight of kidney and liver,"db/db mice; 10 mg/kg, termination day 111",significant decrease of kidney (p<0.05) and liver (p<0.01) mass
same,"alertness, activity, sedation","db/db mice; mouse, in vivo",no signs of sedation
